How the values were obtained:
[1] = per day; Food and Nutrition Board of the Institute of Medicine; also printed as 1,500 IU; cited from earlier work
NF-KB activation = conditions: cited from earlier work; for tumor necrosis factor a (TNF-a)-induced NF-KB activation: similar dose of both compounds
Akt = conditions: cited from earlier work
IKBa kinase (IKK) = conditions: cited from earlier work
burn-induced scar = experiment: Burn-induced scar outcome after topical tocotrienol (FIG. 1); assay type: in vivo; conditions: topical treatment vs placebo; 65 days after burn injury; n=8; p<0.05
Procedure: (§1) FIG. 1A-FIG. 1D. Topical vitamin E alpha-tocotrienol improves scar outcome. Alpha-tocotrienol content and scar outcomes were assessed in skin 65 days after burn injury. Representative placebo and T3-treated burn scars depicted (A) (scale bar=1 cm). […] Color (C) and contour (D) were judged by blinded reviewers according to their respective 5-point scales. […] Data are mean+SD (n=8); *p<0.05.

IL-1 and IL-6 in serum = conditions: treated rats; vs before nicotine and tocotrienol treatment; cited from earlier work
HMG-CoA reductase = biological target: T1, HMG-CoA reductase (Homo sapiens, UniProt P04035); conditions: micromolar amounts; cited from earlier work
T1 sequence (P04035 1-888): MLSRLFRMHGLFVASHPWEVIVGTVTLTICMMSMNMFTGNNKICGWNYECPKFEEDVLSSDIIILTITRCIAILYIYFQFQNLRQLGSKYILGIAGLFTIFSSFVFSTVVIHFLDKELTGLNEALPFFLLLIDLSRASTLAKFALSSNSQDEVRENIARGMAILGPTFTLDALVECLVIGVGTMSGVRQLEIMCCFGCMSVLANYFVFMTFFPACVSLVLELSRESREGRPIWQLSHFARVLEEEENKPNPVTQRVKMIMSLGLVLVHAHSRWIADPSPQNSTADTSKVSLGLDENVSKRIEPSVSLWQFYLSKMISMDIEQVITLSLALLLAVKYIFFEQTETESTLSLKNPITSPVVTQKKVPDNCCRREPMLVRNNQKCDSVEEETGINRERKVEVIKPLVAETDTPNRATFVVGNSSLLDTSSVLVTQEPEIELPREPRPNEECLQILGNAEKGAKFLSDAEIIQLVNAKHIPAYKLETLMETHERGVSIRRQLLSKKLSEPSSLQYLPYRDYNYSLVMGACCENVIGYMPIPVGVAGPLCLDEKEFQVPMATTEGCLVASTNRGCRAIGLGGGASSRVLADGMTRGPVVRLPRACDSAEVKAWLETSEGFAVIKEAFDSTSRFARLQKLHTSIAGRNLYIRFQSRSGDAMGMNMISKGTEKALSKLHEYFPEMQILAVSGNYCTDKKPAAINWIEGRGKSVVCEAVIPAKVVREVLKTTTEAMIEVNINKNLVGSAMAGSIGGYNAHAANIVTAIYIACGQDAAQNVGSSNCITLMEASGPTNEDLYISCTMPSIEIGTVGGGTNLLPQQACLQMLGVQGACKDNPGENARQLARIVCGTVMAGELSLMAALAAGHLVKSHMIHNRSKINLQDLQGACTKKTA

[2] = Alpha-tocotrienol content in burn scar tissue (FIG. 1B); assay type: in vivo; conditions: topical treatment vs placebo; skin 65 days after burn injury; n=8; p<0.05
Procedure: as §1

[3] = test system: adhesion molecules (ICAM, VCAM, and E-selectin); conditions: compared among forms of vitamin E; cited from earlier work
[4] = Oral tocotrienol supplementation in animals, tissue levels; assay type: in vivo
Procedure: (§2) The inventors have also observed that oral supplementation in animals results in enhancement of tocotrienol in tissues such as skin, brain, lung etc. Levels of tocotrienol in human tissues following supplementation is currently being investigated by the inventors' laboratory (IRB protocol 200500034). The patients in the inventors' ongoing study are being orally supplemented with 200 mg twice a day. Recently, pharmacokinetic studies have been performed where humans have been orally supplemented with tocotrienol (dose: 692 mg). Based on this work and the inventors' current study, the inventors plan to use (200×2=400 mg/day; note that for alpha-tocopherol 1 mg=1.51 U) for the inventors' study.

[5] = Ongoing IRB protocol 200500034, oral TCT supplementation before surgery; assay type: in vivo, human
Procedure: In this protocol, patients are being supplemented 200 mg TCT twice a day for a minimum of 4 weeks prior to surgery. The maximum supplementation has been for over a year (currently on-going supplementation)
as §2
In this protocol, patients are being supplemented 200 mg TCT twice a day for a minimum of 4 weeks prior to surgery.
In this protocol, patients are being supplemented 200 mg TCT twice a day for a minimum of 4 weeks prior to surgery. The maximum supplementation has been for over a year (currently on-going supplementation).

Cc1c(C)c2c(c(C)c1O)CC[C@@](C)(CCC[C@H](C)CCC[C@H](C)CCCC(C)C)O2 [alpha-tocopherol]
upper tolerable intake level (UL) [1]: 1,000 mg

Cc1c(O)cc2c(c1C)O[C@](C)(CCC[C@H](C)CCC[C@H](C)CCCC(C)C)CC2 [gamma-tocopherol]
tumor necrosis factor a (TNF-a)-induced NF-KB activation (NF-KB activation): no effect

CC(C)=CCC/C(C)=C/CC/C(C)=C/CC[C@]1(C)CCc2cc(O)c(C)c(C)c2O1 [gamma-tocotrienol]
TNF induced Akt activation (Akt): inhibit
NF-KB activation induced by phorbol myristate acetate, okadaic acid, lipopolysaccharide, cigarette smoke, IL-1I, and epidermal growth factor (NF-KB activation): abolished
TAK 1/TAB 1-induced NF-KB dependant reporter gene expression (NF-KB activation): inhibit
constitutive NF-KB activation expressed by certain tumor cells (NF-KB activation): nullified
tumor necrosis factor a (TNF-a)-induced NF-KB activation (NF-KB activation): completely abolished
TNF-induced activation of IKBa kinase (IKK) (IKBa kinase (IKK)): inhibiting

tocotrienol
scar color, 5-point scale, blinded reviewers (burn-induced scar): significantly improved
scar contour, 5-point scale, blinded reviewers (burn-induced scar): significantly improved
serum levels of IL-6 (IL-1 and IL-6 in serum): significantly lower
activity of HMG-CoA reductase (HMG-CoA reductase): suppress
alpha-tocotrienol content in scar tissue [2]: significantly increased
reducing endothelial expression of adhesion molecules and adhesion to monocytes [3]: most effective
tocotrienol in tissues such as skin, brain, lung [4]: enhancement
related adverse effects ([5]; 200 mg TCT twice a day, minimum 4 weeks prior to surgery, maximum over a year): no related adverse affects
reaching the skin ([5]; oral dosage of 400 mg per day): sufficient to reach the skin
appearance of scars ([5]; pre-treatment with TCT, observations from ongoing study): Improves
